Test results: the CheMixHub ionic liquid set

Assay: xn = mol fraction of the nth substance listed
Conditions: for viscosity: 100 kPa; for electrical conductivity: 298 K, 101 kPa

CCCC[n+]1ccn(C)c1.O=[N+]([O-])[O-] + CC(C)O
Conditions | viscosity [mPa·s]
293.15 K, x1 = 0.1596 | 6.9
293.15 K, x1 = 0.6506 | 53
293.15 K, x1 = 0.7413 | 70
298.15 K, x1 = 0.1596 | 6
298.15 K, x1 = 0.2405 | 9.3
298.15 K, x1 = 0.7413 | 56
298.15 K, x1 = 0.8515 | 82
303.15 K, x1 = 0.1596 | 5.2
303.15 K, x1 = 0.8515 | 63
303.15 K, x1 = 0.9396 | 90
308.15 K, x1 = 0.2405 | 6.6
308.15 K, x1 = 0.8515 | 51
308.15 K, x1 = 0.9396 | 72
308.15 K, x1 = 1 | 97
313.15 K, x1 = 0.3495 | 9
313.15 K, x1 = 0.9396 | 59
313.15 K, x1 = 1 | 75
318.15 K, x1 = 0.2405 | 5.2
318.15 K, x1 = 0.3495 | 7.9
318.15 K, x1 = 1 | 56
323.15 K, x1 = 0.3495 | 7.2

CC(=O)[O-].Cn1cc[nH+]c1 + COS(=O)(=O)[O-].Cn1cc[n+](C)c1
298.15 K
Conditions | viscosity [mPa·s]
x1 = 0.1 | 90.2
x1 = 0.19 | 77.2
x1 = 0.31 | 56.3
x1 = 0.4 | 40.7
x1 = 0.5 | 35.3
x1 = 0.59 | 27.7

CCCC[n+]1ccn(C)c1.O=[N+]([O-])[O-] + CCC(C)O
Conditions | viscosity [mPa·s]
293.15 K, x1 = 0.0813 | 5.4
293.15 K, x1 = 0.1595 | 7.3
298.15 K, x1 = 0.1595 | 6.1
298.15 K, x1 = 0.2402 | 8.4
298.15 K, x1 = 0.7398 | 52
298.15 K, x1 = 0.8502 | 79
303.15 K, x1 = 0.1595 | 5.3
303.15 K, x1 = 0.2402 | 7.2
303.15 K, x1 = 0.8502 | 62
308.15 K, x1 = 0.2402 | 6.3
308.15 K, x1 = 0.35 | 9.4
308.15 K, x1 = 0.9399 | 71
308.15 K, x1 = 1 | 97
313.15 K, x1 = 0.2402 | 5.5
313.15 K, x1 = 0.35 | 8.2
313.15 K, x1 = 0.9399 | 57
313.15 K, x1 = 1 | 75
318.15 K, x1 = 0.35 | 7.2
318.15 K, x1 = 0.4403 | 9.7
318.15 K, x1 = 1 | 56
323.15 K, x1 = 0.35 | 6.3
323.15 K, x1 = 0.4403 | 8.5

C[N+](C)(C)CCO.O=C([O-])[C@@H]1CCCN1 + O
viscosity [mPa·s]
Conditions | x1 = 0.01436 | x1 = 0.02022 | x1 = 0.03417
308.15 K | 1.18 | 1.23 | –
338.15 K | – | – | 1.23

CC(O)C(=O)[O-].CCC[N+]1(C)CCN(C)CC1 + CC#N
Conditions | electrical conductivity [S/m]
x2 = 0.824 | 1.63
x2 = 0.848 | 1.79
x2 = 0.879 | 1.94

CCOS(=O)(=O)[O-].CC[n+]1ccn(C)c1 + OCCN(CCO)CCO
Conditions | viscosity [mPa·s]
303.15 K, x2 = 0 | 75.7
